What is called chromatographic logP is a lipophilicity value derived from retention on a column. A high value points to higher lipophilicity.

The record followed here is US20110245284A1, “Alkoxy- and Alkylthio-Substituted Anilinopyrimidines” (Bayer CropScience AG, priority 2008, published 2011).

One data set relates to Sphaerotheca fuliginea. The data set can be described thus: Sphaerotheca test (cucumber) / protective. Type of data set: in vivo. The following applies: Podosphaera fuliginea, 168 h, active compound concentration 500 ppm, evaluation 7 days after inoculation, read-out: efficacy. As for the experimental part: The plants are subsequently placed in a greenhouse at 70% relative atmospheric humidity and a temperature of 23° C.

The subject of another data set is Leptosphaeria nodorum. The data set can be described thus: Leptosphaeria nodorum test (wheat) / protective. Type of data set: in vivo. Particulars: Parastagonospora nodorum, active compound concentration 500 ppm, evaluation 7-9 days after inoculation, read-out: efficacy. On the procedure:
Thereafter, the plants are placed in a greenhouse at 90% relative atmospheric humidity and a temperature of 22° C.

A further data set deals with Pyricularia oryzae. Briefly: whole plant or invertebrate. Type of data set: in vivo. The following applies: 120 h, read-out: efficacy.
In the next data set the test system is Rhizoctonia solani. Briefly: Rhizoctonia test (rice) / protective. Format: in vivo. The following applies: 96 h, active compound concentration 250 ppm, evaluation 4 days after inoculation, read-out: efficacy.
A short description of data set [1]: logP by LC-MS on reversed-phase columns (C 18), method [b], acidic range pH 2.7. Type of data set: physicochemical. The following applies: pH 2.7, log p. On the procedure:
(§1) The logP values were determined in accordance with EEC Directive 79/831 Annex V.A8 by HPLC (High Performance Liquid Chromatography) on reversed-phase columns (C 18), using the methods below:
[b] The LC-MS determination in the acidic range is carried out at pH 2.7 using the mobile phases 0.1% aqueous formic acid and acetonitrile (contains 0.1% formic acid), linear gradient from 10% acetonitrile to 95% acetonitrile.

Another data set has as its system Cochliobolus miyabeanus. Briefly: Cochliobolus test (rice) / protective. Particulars: Bipolaris oryzae, in Oryza sativa, 96 h, read-out: efficacy.
For a further data set, the system named is Venturia inaequalis. Briefly: Venturia test (apple) / protective. Type of data set: in vivo. Particulars: 240 h, active compound concentration 100 ppm, evaluation 10 days after inoculation, read-out: efficacy. On the procedure: After the spray coating has dried on, the plants are inoculated with an aqueous conidia suspension of the apple scab pathogen Venturia inaequalis and then remain for 1 day in an incubation cabinet at about 20° C. and 100% relative atmospheric humidity.

In a further data set the test system is Alternaria solani. Briefly: Alternaria test (tomato) / protective. Particulars: 72 h, active compound concentration 100 ppm, evaluation 3 days after inoculation, read-out: efficacy. Format: in vivo. On the procedure: The plants are then placed in an incubation cabinet at about 20° C. and 100% relative atmospheric humidity.
A further data set relates to Pyrenophora teres. The data set can be described thus: Pyrenophora teres test (barley) / protective. Format: in vivo. The following applies: 192 h, active compound concentration 500 ppm, evaluation 8 days after inoculation, read-out: efficacy. On the procedure: After the spray coating has dried on, the plants are sprayed with a spore suspension of Pyrenophora teres. The plants remain in an incubation cabinet for 48 hours at 20° C. and 100% relative atmospheric humidity.

Data set [2] is described as follows: logP by LC-MS on reversed-phase columns (C 18), method [c], neutral range pH 7.8. Format: physicochemical. The following applies: pH 7.8. On the procedure: as §1
[c] The LC-MS determination in the neutral range is carried out at pH 7.8 using the mobile phases 0.001 molar aqueous ammonium bicarbonate solution and acetonitrile, linear gradient from 10% acetonitrile to 95% acetonitrile.

Procedure for Cochliobolus miyabeanus: Cochliobolus Test (Rice)/Protective • Solvent: 28.5 parts by weight of acetone • Emulsifier: 1.5 parts by weight of alkylaryl polyglycol ether
1 day after the treatment, the plants are inoculated with an aqueous spore suspension of Cochliobolus miyabeanus. The plants are then placed in a greenhouse at 100% relative atmospheric humidity and 25° C.
Evaluation is carried out 4 days after the inoculation.

With `CCCSc1cccc(Nc2ncc(C(F)(F)F)c(NC3CC3)n2)c1` [Example 109], the pest or weed control at 500 ppm in the data set with Sphaerotheca fuliginea and with Leptosphaeria nodorum was no less than 70% throughout. Besides, the pest or weed control at 250 ppm in the data set with Pyricularia oryzae, with Rhizoctonia solani and in the data set with Cochliobolus miyabeanus was no less than 80% throughout. The compound also registered a chromatographic logP in [1] of 4.44.
In the case of `CCOCCOc1cccc(Nc2ncc(Cl)c(NC3CC3)n2)c1` [Example 93], the pest or weed control at 100 ppm with Venturia inaequalis and with Alternaria solani was no less than 70% throughout. The pest or weed control at 500 ppm in the data set with Sphaerotheca fuliginea, in the data set with Leptosphaeria nodorum and in the data set on Pyrenophora teres was no less than 70% throughout. For the same compound, the pest or weed control at 250 ppm in the data set on Pyricularia oryzae and in the data set on Cochliobolus miyabeanus was no less than 80% each time. The values for the chromatographic logP in [1] and in data set [2] were 2.13 and 3.3, respectively.
As to `COC(C)c1cccc(Nc2ncc(C(F)(F)F)c(NC3CCC3)n2)c1` (centres unmarked) [Example 19], the pest or weed control at 500 ppm with Leptosphaeria nodorum and in the data set with Pyrenophora teres was no less than 70% in each case. Also, the pest or weed control at 250 ppm with Pyricularia oryzae, in the data set with Rhizoctonia solani and in the data set with Cochliobolus miyabeanus was no less than 80% in each case. The same compound returned a chromatographic logP in data set [1] of 3.69.
`CCC[S+]([O-])c1cccc(Nc2ncc(Br)c(NC3CC3)n2)c1` (centres unmarked) [Example 102]: the pest or weed control at 500 ppm in the data set with Leptosphaeria nodorum and in the data set with Pyrenophora teres was no less than 70% throughout. Further, the pest or weed control at 250 ppm in the data set on Pyricularia oryzae, in the data set on Rhizoctonia solani and in the data set on Cochliobolus miyabeanus was no less than 80% in each case. Moreover, the chromatographic logP in data set [1] was found to be 1.04; in data set [2], 2.5.
Turning to `CC[S+]([O-])c1cccc(Nc2ncc(C(F)(F)F)c(NC3CC3)n2)c1` (centres unmarked) [Example 117], the pest or weed control at 500 ppm with Sphaerotheca fuliginea, in the data set with Leptosphaeria nodorum and in the data set on Pyrenophora teres was no less than 70% throughout. The pest or weed control at 250 ppm in the data set on Pyricularia oryzae, in the data set on Rhizoctonia solani and in the data set on Cochliobolus miyabeanus was no less than 80% throughout. Also, the values for the chromatographic logP in data set [1] and in [2] were 2.2 and 2.46, respectively.
As for `CCCC[S+]([O-])c1cccc(Nc2ncc(Br)c(NC3CC3)n2)c1` (centres unmarked) [Example 126], the pest or weed control at 500 ppm with Leptosphaeria nodorum and with Pyrenophora teres was no less than 70% in each case. The pest or weed control at 250 ppm in the data set with Pyricularia oryzae, in the data set with Rhizoctonia solani and with Cochliobolus miyabeanus was no less than 80% each time. The chromatographic logP amounted to 2.28 in data set [1] and 2.86 in data set [2].
For `CCCSc1cccc(Nc2ncc(Cl)c(NC3CCC3)n2)c1` [Example 5], the pest or weed control at 500 ppm with Leptosphaeria nodorum and with Pyrenophora teres was no less than 70% throughout. Moreover, the pest or weed control at 250 ppm in the data set on Pyricularia oryzae, in the data set on Rhizoctonia solani and in the data set on Cochliobolus miyabeanus was no less than 80% each time. Besides, in data set [1], the chromatographic logP worked out at 3.66.
In the case of `COC(C)c1cccc(Nc2ncc(Cl)c(NC(C)C)n2)c1` (centres unmarked) [Example 129], the pest or weed control at 100 ppm in the data set with Venturia inaequalis and in the data set on Alternaria solani was no less than 70% each time. For the same compound, the pest or weed control at 500 ppm in the data set on Sphaerotheca fuliginea and in the data set on Leptosphaeria nodorum was no less than 70% throughout. In addition, the pest or weed control at 250 ppm in the data set with Pyricularia oryzae, in the data set with Rhizoctonia solani and in the data set on Cochliobolus miyabeanus was no less than 80% in each case. Further, the values for the chromatographic logP in [1] and in data set [2] were 2.02 and 3.67, respectively.
For `CCS(=O)(=O)c1cccc(Nc2ncc(C(F)(F)F)c(NC3CC3)n2)c1` [Example 116], in the data set on Venturia inaequalis, the pest or weed control at 100 ppm was no less than 70%. The pest or weed control at 500 ppm in the data set with Sphaerotheca fuliginea, with Leptosphaeria nodorum and in the data set with Pyrenophora teres was no less than 70% in each case. Moreover, the pest or weed control at 250 ppm in the data set on Pyricularia oryzae, in the data set on Rhizoctonia solani and in the data set on Cochliobolus miyabeanus was no less than 80% in each case. Besides, the chromatographic logP in [1] came to 2.74; in data set [2] it was 2.8.
Consider `CCCCSc1cccc(Nc2ncc(Cl)c(NC3CCC3)n2)c1` [Example 106], for which the pest or weed control at 100 ppm with Venturia inaequalis and in the data set on Alternaria solani was no less than 70% in each case. Further, the pest or weed control at 500 ppm in the data set on Leptosphaeria nodorum was no less than 70%. The pest or weed control at 250 ppm in the data set on Pyricularia oryzae, in the data set on Rhizoctonia solani and with Cochliobolus miyabeanus was no less than 80% throughout. For the same compound, the chromatographic logP in data set [1] was found to be 4.28; in data set [2], 5.13.
With `CCOCCOc1ccc(Nc2ncc(C(F)(F)F)c(NC3CC3)n2)cc1` [Example 91], the pest or weed control at 500 ppm in the data set with Sphaerotheca fuliginea, in the data set with Leptosphaeria nodorum and in the data set with Pyrenophora teres was no less than 70% each time. The pest or weed control at 250 ppm in the data set with Pyricularia oryzae, with Rhizoctonia solani and in the data set with Cochliobolus miyabeanus was no less than 80% in each case. Besides, the chromatographic logP in [1] was 3.26; in [2] it was 3.64.
On to `COCc1cccc(Nc2ncc(C(F)(F)F)c(NCC3CC3)n2)c1` [Example 127], for which the pest or weed control at 500 ppm in the data set with Sphaerotheca fuliginea, in the data set on Leptosphaeria nodorum and in the data set with Pyrenophora teres was no less than 70% each time. The pest or weed control at 250 ppm with Pyricularia oryzae, in the data set on Rhizoctonia solani and with Cochliobolus miyabeanus was no less than 80% throughout.
`CCSc1cccc(Nc2ncc(C(F)(F)F)c(NC3CC3)n2)c1` [Example 101]: the pest or weed control at 500 ppm in the data set on Sphaerotheca fuliginea, in the data set with Leptosphaeria nodorum and in the data set with Pyrenophora teres was no less than 70% in each case. The pest or weed control at 250 ppm in the data set with Pyricularia oryzae, in the data set on Rhizoctonia solani and with Cochliobolus miyabeanus was no less than 80% each time. The figures for the chromatographic logP in [1] and in [2] were 3.95 and 4.21, respectively.
`CCCCSc1cccc(Nc2ncc(Br)c(NC3CC3)n2)c1` [Example 105]: the pest or weed control at 500 ppm in the data set on Leptosphaeria nodorum is no less than 70%. Besides, the pest or weed control at 250 ppm in the data set with Pyricularia oryzae, in the data set with Rhizoctonia solani and in the data set on Cochliobolus miyabeanus was no less than 80% in each case. Moreover, the chromatographic logP was found to be 4 in data set [1] and 4.99 in [2].
Take `COC(C)c1cc(Nc2ncc(Cl)c(NC3CC3)n2)ccc1C` (centres unmarked) [Example 92]: the pest or weed control at 100 ppm with Venturia inaequalis and in the data set with Alternaria solani was no less than 70% each time. Besides, the pest or weed control at 500 ppm in the data set on Sphaerotheca fuliginea and in the data set on Leptosphaeria nodorum was no less than 70% throughout. The pest or weed control at 250 ppm in the data set on Pyricularia oryzae and in the data set on Cochliobolus miyabeanus was no less than 80% in each case. Moreover, the chromatographic logP in [1] was determined as 2.11; in data set [2] it was 3.7.
As for `COCc1cccc(Nc2ncc(Cl)c(NC(C)C)n2)c1` [Example 26], the pest or weed control at 100 ppm in the data set with Venturia inaequalis and in the data set with Alternaria solani was no less than 70% throughout. The pest or weed control at 500 ppm with Leptosphaeria nodorum is no less than 70%. The pest or weed control at 250 ppm in the data set with Pyricularia oryzae, with Rhizoctonia solani and with Cochliobolus miyabeanus was no less than 80% in each case. Also, the chromatographic logP in data set [1] amounted to 1.76.
Take `CCC[S+]([O-])c1cccc(Nc2ncc(Cl)c(NC3CCC3)n2)c1` (centres unmarked) [Example 100]: the pest or weed control at 100 ppm in the data set on Venturia inaequalis and with Alternaria solani was no less than 70% throughout. Further, in the data set on Leptosphaeria nodorum, the pest or weed control at 500 ppm was no less than 70%. The pest or weed control at 250 ppm in the data set with Pyricularia oryzae, with Rhizoctonia solani and with Cochliobolus miyabeanus was no less than 80% in each case. In addition, the chromatographic logP in [1] worked out at 2.09.
